PubChem BioAssay AID1845207 (Molecular Pharmacology Branch, DTP, NCI, 2023)
Where “and” joins values, the source holds several entries; their conditions need not be identical. Equal values may be shown once.

System: NCI-H1876 tumor spheroid viability
Experiment: Anticancer human tumor NCI-H1876 cell line growth inhibition;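 also: spheroids exposed to compounds for seven days before the viability read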;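 as to viability, T/C: percent of DMSO vehicle control viability so 100% = vehicle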
Settings: spheroids with HUVEC and MSC; for IC50: curve of first compound; for viability, T/C: stronger effect = lower value
Procedure, shortened: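 Complex tumor spheroids combined malignant cells with endothelial cells and mesenchymal stem cells. DNA-damaging drugs and DNA repair inhibitors were tested alone and in combination, at half-log dilutions down from clinical Cmax (top 10 microM if Cmax unknown), 0.25% DMSO final.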

[1] = second compound 1 µM, first compound 0.0316 µM
[2] = second compound 1 µM, first compound 0.1 µM
[3] = second compound 1 µM, first compound 0.316 µM
[4] = second compound 1 µM, first compound 1 µM
[5] = second compound 1 µM, first compound 3.16 µM
[6] = second compound 1 µM, first compound 10 µM
[7] = second compound 3.16 µM, first compound 0.0316 µM
[8] = second compound 3.16 µM, first compound 0.1 µM
[9] = second compound 3.16 µM, first compound 0.316 µM
[10] = second compound 3.16 µM, first compound 1 µM
[11] = second compound 3.16 µM, first compound 3.16 µM
[12] = second compound 3.16 µM, first compound 10 µM
[13] = second compound 10 µM, first compound 0.0316 µM
[14] = second compound 10 µM, first compound 0.1 µM
[15] = second compound 10 µM, first compound 0.316 µM
[16] = second compound 10 µM, first compound 1 µM
[17] = second compound 10 µM, first compound 3.16 µM
[18] = second compound 10 µM, first compound 10 µM
[19] = second compound 31.6 µM, first compound 0.0316 µM
[20] = second compound 31.6 µM, first compound 0.1 µM
[21] = second compound 31.6 µM, first compound 0.316 µM
[22] = second compound 31.6 µM, first compound 1 µM
[23] = second compound 31.6 µM, first compound 3.16 µM
[24] = second compound 31.6 µM, first compound 10 µM
[25] = second compound 100 µM, first compound 0.0316 µM
[26] = second compound 100 µM, first compound 0.1 µM
[27] = second compound 100 µM, first compound 0.316 µM
[28] = second compound 100 µM, first compound 1 µM
[29] = second compound 100 µM, first compound 3.16 µM
[30] = second compound 100 µM, first compound 10 µM

Compound: COc1ccc([C@@H](O)c2cc(-c3ncnc4cc(N5CCOCC5)ccc34)c(F)cc2Cl)nn1 + Cn1nnc2c(C(N)=O)ncn2c1=O
- IC50 (second compound 1 µM): 1080 nM
- IC50 (second compound 3.16 µM): 1210 nM
- IC50 (second compound 10 µM): 1000 nM
- IC50 (second compound 31.6 µM): 970 nM
- IC50 (second compound 100 µM): 335 nM
- viability, T/C [1]: 93.8%
- viability, T/C [2]: 86.7%
- viability, T/C [3]: 74.3%
- viability, T/C [4]: 49%
- viability, T/C [5]: 29%
- viability, T/C [6]: 4.64%
- viability, T/C [7]: 97.5%
- viability, T/C [8]: 85.2%
- viability, T/C [9]: 80%
- viability, T/C [10]: 53.7%
- viability, T/C [11]: 26.5%
- viability, T/C [12]: 4.48%
- viability, T/C [13]: 94.4%
- viability, T/C [14]: 86.3%
- viability, T/C [15]: 72%
- viability, T/C [16]: 51%
- viability, T/C [17]: 23.5%
- viability, T/C [18]: 3.37%
- viability, T/C [19]: 90.8%
- viability, T/C [20]: 82.2%
- viability, T/C [21]: 73.1%
- viability, T/C [22]: 47.7%
- viability, T/C [23]: 25.1%
- viability, T/C [24]: 4.04%
- viability, T/C [25]: 48.4%
- viability, T/C [26]: 65.8%
- viability, T/C [27]: 48.5%
- viability, T/C [28]: 36.1%
- viability, T/C [29]: 17.8%
- viability, T/C [30]: 2.3%

Compound: CC(C)n1c(=O)n(C)c2cnc3cc(F)c(-c4ccc(OCCCN5CCCCC5)nc4)cc3c21
- viability, T/C (compound 0.0316 µM): 100% and 85.6% and 104%
- viability, T/C (compound 0.1 µM): 98.1% and 49.6% and 104%
- viability, T/C (compound 0.316 µM): 103% and 53.3% and 100%
- viability, T/C (compound 1 µM): 103% and 47.4% and 104%
- viability, T/C (compound 3.16 µM): 107% and 28.5% and 105%
- viability, T/C (compound 10 µM): 102% and 11.4% and 93.3%

Compound: [2H]c1nc(C)nc([2H])c1-c1cc(NC[C@@H](C)c2cccc3c(C(=O)NC)ccnc23)ncn1 + Cn1nnc2c(C(N)=O)ncn2c1=O
- IC50 (second compound 1 µM): > 10000 nM
- IC50 (second compound 3.16 µM): > 10000 nM
- IC50 (second compound 10 µM): > 10000 nM
- IC50 (second compound 31.6 µM): > 10000 nM
- IC50 (second compound 100 µM): > 10000 nM
- viability, T/C [1]: 98.1%
- viability, T/C [2]: 98.7%
- viability, T/C [3]: 101%
- viability, T/C [4]: 101%
- viability, T/C [5]: 86.8%
- viability, T/C [6]: 67.6%
- viability, T/C [7]: 106%
- viability, T/C [8]: 104%
- viability, T/C [9]: 95.4%
- viability, T/C [10]: 106%
- viability, T/C [11]: 88.8%
- viability, T/C [12]: 77.2%
- viability, T/C [13]: 104%
- viability, T/C [14]: 103%
- viability, T/C [15]: 106%
- viability, T/C [16]: 101%
- viability, T/C [17]: 89.3%
- viability, T/C [18]: 71.5%
- viability, T/C [19]: 91.8%
- viability, T/C [20]: 55.8%
- viability, T/C [21]: 91.7%
- viability, T/C [22]: 95.5%
- viability, T/C [23]: 89.2%
- viability, T/C [24]: 50.1%
- viability, T/C [25]: 69.5%
- viability, T/C [26]: 76.9%
- viability, T/C [27]: 70.4%
- viability, T/C [28]: 66.2%
- viability, T/C [29]: 65.1%
- viability, T/C [30]: 58.3%
